Each structure is given as a SMILES string.

Test [1] deals with T1, FPTase (Homo sapiens, UniProt P49354+P49356). As to the kind of experiment: in vitro FTase Inhibition Assay, H-Ras as substrate for farnesylation. The test is classed as biochemical. Particulars: H-Ras used as substrate for farnesylation. On the procedure:
(§1) Enzyme test procedure: FPTase inhibition in vitro assay was performed according to James, G. L., Brown, M. S., and Goldstein, J. L., Methods in Enzymology, 1995, 255, 38-46; and Garcia, M. A., et al., J. Biol. Chem., 1993, 268,18415-18420.
(§2) Materials—Purified FPTase (Moomaw, J. F. and Casey, P. J., J. Biol. Chem., 1992, 267,17438-17443), purified His6-Ras, inhibitor compounds at 10 mg/ml or 10 mM in 100% DMSO, ^3H-FPP (50,000 dpm/pmol) Amersham, TCA/SDS (6%/2%), TCA (6%), Glass fiber filters ([…]), vacuum manifold or 96 well filtration plates.
(§3) Methods—1. Dilute FPTase inhibitors from stock solutions to 2.5× in 2.5% DMSO, 10 mM DTT, 0.5% octyl-B-glucoside. 2. Solution #1 is added to FPTase reaction in a volume of […]. 3. Standard reaction mix, […], contains 50 mM Tris (7.5),[…], 3 mM MgCl2, 20 mM KCl, 5 mM DTT, 0.2% octyl-B-glucoside, 1% DMSO, […], 10 ng FPTase, and various concentrations of FPTase inhibitors. 4. Incubate for 30-90 min at 25° C. 5. Stop reactions with TCA/SDS (6%/2%), hold at 4° C. for 45-60 min. 6. Filter by manifold or 96 well plate, wash filter 3-5× with TCA (6%). 7. Add scintillant to filters, measure ^3H-FPP incorporation into Ras protein.
(§4) Analysis of Results—Percent inhibition by test compounds is determined by the following:
(§5) (cpm from precipitated Ras with test compounds)−(background cpm)×100=% inhibition.
(§6) (cpm from precipitated Ras without test compounds)−(background cpm)

Test [2] deals with T1, FPTase. As to the kind of experiment: in vitro FTase Inhibition Assay, K-Ras as substrate for farnesylation. The test is classed as biochemical. Particulars: K-Ras used as substrate for farnesylation. Here is the method:
as §1, §2, §3, §4, §5, §6

Take `CC1(c2ccccc2)OC(CC(SC[C@@H](O)[C@H](O)CS)c2ccsc2)=CC1=O` (relative stereo) [Example 1, 5-(2-{[(2S*,3S*)-2,3-Dihydroxy-4-mercaptobutyl]thio}-2-thien-3-ylethyl)-2-methyl-2-phenylfuran-3(2H)-one]: the concentration for half-maximal inhibition (IC50) (in general, the concentration at which inhibition is half-maximal) in test [1] is 60 nM; in test [2], 100 nM.
Take `CC1(c2ccccc2)OC(CC(SC[C@H](O)[C@H](O)CS)c2ccsc2)=CC1=O` (relative stereo) [Example 2, 5-(2-[[(2R*,3S*)-2,3-Dihydroxy-4-mercaptobutyl]thio]-2-thien-3-ylethyl)-2methyl-2-phenylfuran-3(2H)-one]: the IC50 in test [1] is 190 nM.
For the molecule `CC1(c2ccccc2)OC(CC(SC[C@@H](O)[C@H](O)CS)c2ccccc2[N+](=O)[O-])=CC1=O` (relative stereo) [Example 7, 5-[2-{[(2S*,3S*)-2,3-Dihydroxy-4-mercaptobutyl]thio}-2-(2-nitrophenyl)ethyl]-2-methyl-2-phenylfuran-3(2H)-one], the 50% inhibitory concentration (IC50) amounted to 320 nM in test [1] and 90 nM in test [2].
The molecule `CC1(c2ccccc2)OC(CC(SC[C@H](O)[C@@H](O)CS)c2ccsc2)=CC1=O` (stereo partly drawn) [Example 3, 5-[2-{[(2R,3R)-2,3-Dihydroxy-4-mercaptobutyl]thio}-2-(3-thienyl)ethyl]-2-methyl-2-phenylfuran-3(2H)-one] gave an IC50 in test [1] of 180 nM.
With `CC1(c2ccc(F)cc2)OC(CC(SC[C@H](O)[C@@H](O)CS)c2ccsc2)=CC1=O` (stereo partly drawn) [Example 6, 5-(2-{[(2R,3R)-2,3-Dihydroxy-4-mercaptobutyl]thio}-2-thien-3-ylethyl)-2-(4-fluorophenyl)-2-methylfuran-3(2H)-one], the IC50 was 120 nM in test [1] and 140 nM in test [2].
For `CC(C1=CC(=O)C(C)(c2ccccc2)O1)C(SCC(O)C(O)CS)c1ccsc1` (stereo not shown) [Example 8, 5-(2-{[(2S*3S*)-2,3-Dihydroxy-4-mercaptobutyl]thio}-1-methyl-2-thien-3-ylethyl)-2-methyl-2-phenylfuran-3(2H)-one], the 50% inhibitory concentration (IC50) in test [1] was determined as 500 nM; in test [2] it was 700 nM.
`CC1(c2ccccc2)OC(CC(SCCCCS)c2ccsc2)=CC1=O` (stereo not shown) [Example 9, 5-[2-[(4-Mercaptobutyl)thio]-2-(3-thienyl)ethyl]-2-methyl-2-phenylfuran-3(2H)-one]: the IC50 in test [1] came out at 1500 nM; in test [2], 3700 nM.
For the molecule `CC1(c2ccccc2)OC(CC(SCCCCO)c2ccsc2)=CC1=O` (stereo not shown) [Example 10, 5-[2-[(4-Hydroxybutyl)thio]-2-(3-thienyl)ethyl]-2-methyl-2-phenylfuran-3(2H)-one], the IC50 was 5500 nM in test [1] and over 10000 nM in test [2].
Take `CC1(c2ccccc2)OC(CC(SCCCS)c2ccsc2)=CC1=O` (stereo not shown) [Example 11, 5-[2-[(3-Mercaptopropyl)thio]-2-(3-thienyl)ethyl]-2-methyl-2-phenylfuran-3(2H)-one]: the values for the IC50 in test [1] and in test [2] were 60 nM and 150 nM, respectively.
Regarding `CC1(c2ccccc2)OC(CC(SCCCCCS)c2ccsc2)=CC1=O` (stereo not shown) [Example 12, 5-[2-[(5-Mercaptopentyl)thio]-2-(3-thienyl)ethyl]-2-methyl-2-phenylfuran-3(2H)-one], half-maximal inhibition in test [1] (IC50) required 8000 nM.
As for `CC1(c2ccccc2)OC(CC(SCCS)c2ccsc2)=CC1=O` (stereo not shown) [Example 13, 5-[2-[(2-Mercaptoethyl)thio]-2-(3-thienyl)ethyl]-2-methyl-2-phenylfuran-3(2H)-one], the IC50 in test [1] was 180 nM; in test [2], 1000 nM.
The matching figures for `CC1(c2ccccc2)OC(CC(SCC(S)CO)c2ccsc2)=CC1=O` (stereo not shown) [Example 14, 5-[2-[(3-Hydroxy-2-mercaptopropyl)thio]-2-(3-thienyl)ethyl]-2-methyl-2-phenylfuran-3(2H)-one]: 7200 nM and 4500 nM.
Regarding `CC1(c2ccccc2)OC(CC(SCCCO)c2ccsc2)=CC1=O` (stereo not shown) [Example 15, 5-[2-[(3-Hydroxypropyl)thio]-2-(3-thienyl)ethyl]-2-methyl-2-phenylfuran-3(2H)-one], the half-maximal inhibitory concentration (IC50) in test [1] was determined as 8300 nM.
Turning to `CC1(c2ccccc2)OC(CC(SCC(O)CO)c2ccsc2)=CC1=O` (stereo not shown) [Example 16, 5-[2-[(2,3-Dihydroxypropyl)thio]-2-(3-thienyl)ethyl]-2-methyl-2-phenylfuran-3(2H)-one], in test [1], half-maximal inhibition (IC50) required 5000 nM.
Take `CC1(c2ccccc2)OC(CC(SCCc2cnccn2)c2ccsc2)=CC1=O` (stereo not shown) [Example 17, 2-Methyl-2-phenyl-5-[2-[(2-pyrazin-2-ylethyl)thio]-2-(3-thienyl)ethyl]furan-3(2H)-one]: the IC50 in test [1] and in test [2] was over 10000 nM throughout.
The molecule `CC1(c2ccccc2)OC(CC(SCCO)c2ccsc2)=CC1=O` (stereo not shown) [Example 18] returned an IC50 in test [1] of 550 nM.
As for `CC1(c2ccc(F)cc2)OC(CC(SCCO)c2ccsc2)=CC1=O` (stereo not shown) [Example 19, 2-(4-Fluorophenyl)-5-[2-[(2-hydroxyethyl)thio]-2-(3-thienyl)ethyl]-2-methylfuran-3(2H)-one], in test [1], the IC50 is over 10000 nM.
With `CC1(c2ccccc2)OC(CC(SC[C@H](N)C(=O)O)c2ccsc2)=CC1=O` (stereo partly drawn) [Example 20, (2R)-2-Amino-3-{[2-(5-methyl-4-oxo-5-phenyl-4,5-dihydrofuran-2-yl)-1-thien-3-ylethyl]thio}propanoic acid], the IC50 in test [1] is over 10000 nM.

The record behind these values is patent publication US6710078B2, “5-Substituted-3(2H)-furanones useful for inhibition of farnesyl-protein transferase” (Wyeth Holdings Corporation, priority 2001, dated 2004).
